Measured values from paper PMC6973020, “Quinoline‐Conjugated Ruthenacarboranes: Toward Hybrid Drugs with a Dual Mode of Action” (Chemmedchem, 2019).

Columns and labels:
Type in all cases: cell-based, human
MCF‐7 cells [1] = test: Sideward Scatter (SSC, cell granularity), MCF‐7; conditions: MCF‐7, 20 μM of 4, 72 h
Description: Flow cytometry. For gaining better insights into the mechanisms of action of the ruthenium complexes, MCF‐7 and LN229 cells incubated with an IC50 dose of 3 or 4, were analyzed via flow cytometry. Several staining protocols were carried out in parallel, in independent experiments: i) AnnV/PI for the detection of apoptotic cell death, ii) AO for the detection of acidic vacuoles, iii) ApoStat for checking caspase activation, iv) CFSE for detecting interference with cellular proliferation, and v) DAPI for the detection of morphological signs of apoptosis. Untreated cells or cells treated only with BSA (control) were also measured, as reference for BSA‐free and BSA‐containing drug formulations, respectively. […] Channels FL1 (green emission), FL2 (orange emission) and/or FL3 (dark red emission) were used for fluorescence detection, according to the specific staining agent. Sideward Scatter (SSC) for MCF‐7 cells treated with 4 or BSA−4 was also analyzed, with respect to the control, for detection of shifts of cell granularity. […]
Figure S16. […] Respective controls, i.e. untreated cells or cells treated only with BSA, were also measured for comparison. […]
Figure S17. […] Respective controls, i.e. untreated cells or cells treated only with BSA, were also measured for comparison.
Sideward Scatter is proportional to cell granularity and was determined via flow cytometry. […]

[2] = system: microtubule‐associated protein light chain 3B (LC3B); test: Western blot analysis of LC3B, LN229; conditions: LN229, IC50 dose
Description: mouse microglial cell line BV‐2 was a kind gift from Dr. Irena Lavrnja, Institute for Biological Research “Siniša Stanković” (University of Belgrade). Cells were routinely cultivated in HEPES‐buffered RPMI‐ […]
FCS, 2 mM L‐glutamine, 0.01% sodium pyruvate and antibiotics, at 37 °C in a humidified atmosphere with 5% CO2. Peritoneal resident macrophages (Mph) were collected from C57BL/6 mice, obtained from the animal facility at the Institute for Biological Research “Siniša Stanković” (University of Belgrade), via peritoneal lavage with ice‐cold PBS. Cells were counted and seeded in 96‐well plates and incubated overnight, as described above. Before treatment, non‐adherent cells were removed.
Isolation of cells from animals were performed in accordance to local guidelines and approved by the local Institutional Animal Care and Use Committee (IACUC).
Staining Protocols for Flow Cytometric Analysis. For AnnV/PI, AO and ApoStat staining, cells were treated with an IC50 dose of 3 or 4 for 72 h, then detached with trypsin and washed with PBS. […] Finally, cells were washed in PBS, resuspended in PBS (or AnnV‐binding buffer for AnnV/PI), and analysed. […] Cells were then washed, trypsinised, dissolved in PBS and analysed by CyFlow® Space Partec using the PartecFloMax® software (Partec GmbH, Münster, Germany).
Staining Protocols for Fluorescence Microscopy. […]

MCF‐7 cells [3] = test: CV viability of MCF‐7 exposed to 3 together with autophagy inhibitors; conditions: MCF‐7, 3 together with CQ or 3‐MA (0.5 mM), 72 h, CV assay
Description: Colorimetric assays for cellular viability. […] Cells were then washed with tap water, dried in air, and the CV dye was dissolved in 33 % (w/v) acetic acid solution. […] The dye was then discarded, and the formed formazan (purple) was dissolved in DMSO. The absorbance was measured with an automated microplate reader at λmax 540 nm, with the reference λmax 670 nm. Untreated cells or cells treated only with BSA (control) were also measured, as reference for BSA‐free and BSA‐containing drug formulations, respectively. […] Cell viability is expressed as percentage (%) relative to control (untreated cultures).58 Experiments were run in three independent replicates. […] Non‐linear regression analyses of the obtained results was done using GraphPad Prism software to calculate IC50 values. page 17: Figure S15. […] MA, 0.5 mM) for 72 h, from CV assay. Data are expressed as indicated above for Figure S11. * indicates statistically significant (p < 0.05) values, with respect to the control, # with respect to cells treated with 3. S16 (1 picture or pasted object on this page, not shown here)

closo ‐[3‐(η^6‐p‐Cymene)‐1‐(quinolin‐8‐yl‐acetate)‐3,1,2‐RuC2B9H10] [Compound 4]
cell granularity (SSC) (MCF‐7 cells [1]): enhanced granularity | expression of LC3B (western blot) [2]: significantly diminished

closo‐ [Compound 3, closo‐ [3‐(η^6‐p‐Cymene)‐1‐(CH2COOH)‐3,1,2‐RuC2B9H10]]
cell viability on co‐treatment with an inhibitor of autophagy (MCF‐7 cells [3]): restoration of cellular viability
